Experimental data from PMC9561113, “[2]-Ladderanes as isosteres for meta-substituted aromatic rings and rigidified cyclohexanes” (Nature Communications, 2022).
Converted amounts (≈) assume the structure as drawn.

Legend:
[1] = Log P (Pion SiriusT3 instrument); assay type: physicochemical
Method: (§1) v/v heat deactivated FBS and 1% v/v penicillin-streptomycin (all from Gibco) and grown for 4 days at 37 °C in an atmosphere of 5% CO 2 and 95% relative humidity. Stock solutions of the compounds were prepared in dimethyl sulfoxide (DMSO) (10 mM), and each compound was dosed in triplicate at a final concentration of 10 μM in Hanks’ balanced salt solution (HBSS) at pH 7.4 containing 10 mM 4-(2-hydroxyethyl)-1-piperazineethanesulfonic acid (HEPES) and 0.02% w/v bovine serum albumin (BSA). A solution without the compounds and containing 5% BSA was added to the acceptor. Bafilomycin (100 nM) was added to both compartments. Cells were incubated with the compounds for 2 h at 37 °C, and flux was measured in the apical-to-basolateral direction. Aliquots from the apical, basal and compound dilution plate were sampled and diluted in 90% Methanol 10% Water with 0.1% Formic acid and 0.4 μ M glyburide as an analytical standard to precipitate the protein. The solutions as well as the calibration solutions were centrifuged for 30 min at 3000 rpm for protein precipitation. Drug concentrations in the donor and acceptor compartments were measured by liquid chromatography–mass spectrometry (LC-MS/MS).
The Log P was measured using a Pion SiriusT3 instrument.
To determine the stability of the bicyclo[2.2.0] system, the following experiments were performed:
Aqueous stability at two different pH:
SI-48 was first saponified to avoid the possibility of acid- or base-mediated hydrolysis:
Two solutions of pH = 2 and pH = 10 were prepared with 1M solutions of HCl and NaOH. Then, SI-49 was stirred in two separate solutions (1 mL of each of the aqueous solution and 0.80 mL of MeCN for each).
LC/MS for both durations. […]

[2] = High throughput equilibrium solubility (miniaturized shake flask); assay type: physicochemical; conditions: phosphate buffer, aqueous buffer, thermodynamic from solid; pH 6.8 phosphate media, shaken 16 hours
Method: High Throughput Equilibriu m Solubility:
The following procedure was adapted from the literature.15 Equilibrium solubility was determined using a miniaturized shake flask approach as described in Zhou et al. Aliquots of 10 mM DMSO compound solution were dispensed in triplicate (2.5 µL/sample) in 96-well polypropylene plates using a Labcyte Echo 525 acoustic dispenser. The DMSO was removed using a GeneVac HT4X evaporator for 15 minutes, 35 °C and full vacuum. Media (pH 6.8 Di-Sodium Hydrogen Phosphate/Potassium Hydrogen Phosphate) was added to each well to achieve a target concentration of 1 mM. The plate was sealed and shaken for 16 hours, then centrifuged at 1000g for phase separation. An aliquot of supernatant was transferred to a new plate, centrifuged a second time at 100g, and then the final supernatant was further diluted for subsequent analysis. Quantification of solubility was performed using a Sound Analytics LS1 and Sciex 6500+ MS/MS and an 8-point calibration curve. […]

[3] = Microsomal clearance (rat liver microsomal intrinsic clearance); assay type: in vitro ADME; conditions: rat liver microsomes, 37 °C, NADPH, 0-30 minutes
Excerpt: The metabolic and physicochemical properties of the [2]-ladderanes compared to aryl/cyclohexyl matched pairs were also studied (compare 35 with 36/37 and 38 with 39/40) (Fig. 5). These structures were chosen because they bear functional groups that are common in drug discovery, yet unlikely to pose any inherent risks. In addition, solubility, permeability, rat liver microsomal intrinsic clearance, and LogP were selected to be evaluated as these are common parameters modulated in drug discovery programs to improve the pharmacokinetic/pharmacodynamic and safety profiles of potential drug candidates.
The following procedure was adapted from the literature. 14 The experiment was performed in 96-well plate format with shaking incubation at 37 °C and 750 rpm. The compounds in 10 mM DMSO were diluted 1:1000 in 100 mM potassium phosphate (Kpi) buffer to 10 µM. 30 µL of the compound solution was added to 120 µL of pretreated microsomal protein for 150 µL enzyme-substrate mixture. Reactions were initiated by addition of 150 µL of cofactor solution (2 mM NADPH, 4 mM MgCl2 in 100 mM KPi). At specific reaction time points (0, 5, 15 and 30 minutes), reaction aliquots (25 µL) were removed and terminated by addition to acetonitrile (150 µL) containing mass spectrometry internal standard (0.4 µM glyburide). The samples were then centrifuged at 500g, and the supernatants analyzed by LC-MS/MS for quantitation of remaining target compound. The percentage of target compound remaining, relative to 0 minutes, was used to estimate in vitro elimination-rate constant (kmic). […]

[4] = Permeability (MDCK), apparent permeability apical-to-basolateral; assay type: in vitro ADME; conditions: dog, with bafilomycin 100 nM in both compartments, MDCK-KO cells, pH 7.4, 2 h, read-out: Papp A-Bx10^-6
Method: The following procedure was adapted from the literature.16 To determine the apparent permeability (Papp), MDCK knockout (MDCK-KO) cells were seeded on Transwell 96 -well plate inserts (Corning, Tewksbury, MA,) at a density of 1.5 × 10^5 cells/cm2 in high glucose DMEM with GlutaMAX containing 10% […]
as §1, with “(LC-MS/MS). […]” for “(LC-MS/MS).”

logP [1]	solubility at 16 h [2] [µM]	Rat Clint [3] [mL/min]	Papp at 2 h, 10 μM [4] [×10⁻⁶ cm/s]	Compound
0.74	> 200	15	29	O=C(C1CC2CC(CO)C21)N1CCCCC1 (stereo not drawn) [compound 35]
0.41	> 200	< 10	32	O=C(c1cccc(CO)c1)N1CCCCC1 [compound 36]
1.45	> 200	21	28	O=C(C1CCCC(CO)C1)N1CCCCC1 (stereo not drawn) [compound 37]
0.98	180 (≈ 42.7 µg/mL)	< 10	5	O=C(O)[C@@H]1C[C@H]2C[C@H](C(=O)N3CCCCC3)[C@H]21 [compound 38]
1.15	> 200	< 10	4	O=C(O)c1cccc(C(=O)N2CCCCC2)c1 [compound 39]
0.95	200 (≈ 47.9 µg/mL)	< 10	4	O=C(O)C1CCCC(C(=O)N2CCCCC2)C1 (stereo not drawn) [compound 40]
